# US4100274A, “Polypeptide” (Imperial Chemical Industries Limited, priority 1976, dated 1978)
# Experiment: toxic effects at multiples of the minimum active dose
# Assay type: in vivo, rats
# Conditions: dosed at one hundred times their minimum effective dose
row,SMILES,toxic effects
1,CC(C)C[C@H](NC(=O)[C@@H](COC(C)(C)C)NC(=O)[C@H](Cc1ccc(O)cc1)NC(=O)[C@H](CO)NC(=O)[C@H](Cc1c[nH]c2ccccc12)NC(=O)[C@H](Cc1cnc[nH]1)NC(=O)[C@@H]1CCC(=O)N1)C(=O)N[C@@H](CCCNC(=N)N)C(=O)N1CCC[C@H]1C(=O)NNC(N)=O [Example 7],no toxic effects
2,CC(C)C[C@H](NC(=O)[C@@H](Cc1ccccc1)NC(=O)[C@H](Cc1ccc(O)cc1)NC(=O)[C@H](CO)NC(=O)[C@H](Cc1c[nH]c2ccccc12)NC(=O)[C@H](Cc1c[nH]cn1)NC(=O)[C@@H]1CCC(=O)N1)C(=O)N[C@@H](CCCNC(=N)N)C(=O)N1CCC[C@H]1C(=O)NNC(N)=O [Example 4],no toxic effects
3,COc1ccc(C[C@@H](NC(=O)[C@H](Cc2ccc(O)cc2)NC(=O)[C@H](CO)NC(=O)[C@H](Cc2c[nH]c3ccccc23)NC(=O)[C@H](Cc2c[nH]cn2)NC(=O)[C@@H]2CCC(=O)N2)C(=O)N[C@@H](CC(C)C)C(=O)N[C@@H](CCCNC(=N)N)C(=O)N2CCC[C@H]2C(=O)NNC(N)=O)cc1 [Example 6],no toxic effects
